Data on 20 molecules can be found in patent US9358250B2, “Methods of using SCD1 antagonists” (Genentech, Inc., priority 2011, dated 2016).

Read-outs that look alike come from different tables or passages of the source.

The target in data set [1] is T1, SCD1 (Homo sapiens, UniProt O00767).
T1 sequence (O00767 1-359): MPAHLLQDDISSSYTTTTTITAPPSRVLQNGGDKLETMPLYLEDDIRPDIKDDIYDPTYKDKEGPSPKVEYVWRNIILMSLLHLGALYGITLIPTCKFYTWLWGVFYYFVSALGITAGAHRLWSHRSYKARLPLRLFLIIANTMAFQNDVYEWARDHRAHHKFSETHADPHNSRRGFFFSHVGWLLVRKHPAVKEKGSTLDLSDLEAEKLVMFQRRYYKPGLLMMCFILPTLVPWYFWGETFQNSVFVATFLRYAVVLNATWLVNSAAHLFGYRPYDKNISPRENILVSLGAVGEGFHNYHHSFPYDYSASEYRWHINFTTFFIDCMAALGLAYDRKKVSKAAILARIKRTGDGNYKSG
To be noted: cited from earlier work.

Data set [2] has as its target T1, SCD1. To be noted: cited from earlier work; for IC50: human SCD1.
The target of data set [3] is T2, rat SCD1 (Rattus norvegicus, UniProt P07308).
T2 sequence (P07308 1-358): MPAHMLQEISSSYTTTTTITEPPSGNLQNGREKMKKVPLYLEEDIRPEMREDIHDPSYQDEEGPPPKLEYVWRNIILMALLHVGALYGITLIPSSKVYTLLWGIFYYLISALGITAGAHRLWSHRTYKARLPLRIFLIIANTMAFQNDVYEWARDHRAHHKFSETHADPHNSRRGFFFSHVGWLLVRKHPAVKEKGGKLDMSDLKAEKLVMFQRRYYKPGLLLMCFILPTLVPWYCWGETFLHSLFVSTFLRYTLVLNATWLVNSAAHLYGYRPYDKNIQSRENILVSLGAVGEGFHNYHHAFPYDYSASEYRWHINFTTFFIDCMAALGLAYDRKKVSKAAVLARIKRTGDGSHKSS
To be noted: cited from earlier work.

The conditions of data set [4]: 30 min incubation; cited from earlier work.
Data set [5] deals with T3, Δ6 desaturase (Homo sapiens, UniProt O95864).
T3 sequence (O95864 1-444): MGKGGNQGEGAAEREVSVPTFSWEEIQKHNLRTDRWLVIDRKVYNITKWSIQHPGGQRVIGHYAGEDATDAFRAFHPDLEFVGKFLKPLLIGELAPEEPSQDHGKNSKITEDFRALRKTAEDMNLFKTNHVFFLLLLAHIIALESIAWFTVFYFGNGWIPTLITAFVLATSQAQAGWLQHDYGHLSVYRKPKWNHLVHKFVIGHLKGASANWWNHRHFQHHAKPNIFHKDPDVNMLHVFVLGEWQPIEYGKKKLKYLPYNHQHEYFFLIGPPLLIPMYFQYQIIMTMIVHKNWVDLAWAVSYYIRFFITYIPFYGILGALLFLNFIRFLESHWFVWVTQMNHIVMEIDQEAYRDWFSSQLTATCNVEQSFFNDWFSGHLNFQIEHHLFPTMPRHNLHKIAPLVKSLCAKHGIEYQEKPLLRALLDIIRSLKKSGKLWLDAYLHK
To be noted: cited from earlier work.

In data set [6] the target is Δ5 desaturase (Homo sapiens, UniProt O60427). To be noted: cited from earlier work.
For data set [7] the following is noted: 30 min incubation; cited from earlier work. The source holds these as a separate data set.
The test system of data set [8] is HCT-15. In words: Cell viability, CellTiter-Glo. The data set is classed as cell-based, human. To be noted: for cell proliferation, oleate / palmitate supplement: HCT15 cells; for IC50: Homo sapiens, HCT-15, 72 h. How it is done:
(§1) For SCD1 small molecule inhibitor experiment, cells were treated with indicated concentration of A37062 (Abbott compound 4c) or G02447171.1 (Daichii compound 24) in DMSO or DMSO alone for 48-72 hr. Cell viability was assessed with CellTiter-Glo at 72 hr post treatment (Promega). Activation of caspase 3 and caspase 7 was measured with the Caspase-Glo 3/7 assay kit at 48 hr after treatment (Promega). Values are presented as mean+/−SD of quadruplets. Data are representative of at least three independent experiments.
(§2) To investigate the effect of SCD1 small molecule antagonists on cancer cell lines were treated with serially diluted A37062 for 72 hr, and […] cell viability was measured by CellTiter-Glo (Promega) as described above.
(§3) To investigate the effect of additional SCD1 small molecule antagonists, HT29 and HCT15 were treated with serially diluted small molecule inhibitors RG1-14 and G02447171 (G7171) for 72 hr, and cell viability was measured by CellTiter-Glo (Promega). The specificity and selectivity of the SCD1 small molecule inhibitors was also evaluated.
Background: ATP-based viability assays read luminescence as a measure of living cells.

The test system of data set [9] is HT29. In words: Cell viability, CellTiter-Glo. In kind it is cell-based, human. To be noted: for cell proliferation, oleate / palmitate supplement: HT29 cells; for IC50: Homo sapiens, HT-29, 72 h. How it is done: as §1, §2, §3

One may read the IC50 as the point on the concentration scale where inhibition reaches its midpoint.

Δ5 desaturase, sequence (O60427 whole entry, stated change not applied): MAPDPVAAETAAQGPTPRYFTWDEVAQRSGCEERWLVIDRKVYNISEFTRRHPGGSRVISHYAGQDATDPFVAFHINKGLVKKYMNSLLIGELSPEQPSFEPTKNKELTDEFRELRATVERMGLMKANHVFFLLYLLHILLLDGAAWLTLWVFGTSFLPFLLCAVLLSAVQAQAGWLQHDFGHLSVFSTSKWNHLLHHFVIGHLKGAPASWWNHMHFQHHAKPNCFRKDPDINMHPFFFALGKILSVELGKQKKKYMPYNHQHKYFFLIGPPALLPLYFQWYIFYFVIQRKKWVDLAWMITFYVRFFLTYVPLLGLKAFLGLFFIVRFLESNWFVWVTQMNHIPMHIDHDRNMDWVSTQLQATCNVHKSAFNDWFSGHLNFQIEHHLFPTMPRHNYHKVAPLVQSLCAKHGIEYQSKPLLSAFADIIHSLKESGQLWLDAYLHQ

In the case of `Cc1nc(-n2ccc(OCc3ccc(F)cc3)cc2=O)sc1C(=O)NCc1ccc(Cl)nc1` [Compound 18], the IC50 in [1] is 50 nM.
As for `Cc1nc(-n2ccc3c(O)cccc3c2=O)sc1C(=O)NCc1ccccc1` [Compound 19], the concentration for half-maximal inhibition (IC50) in data set [1] is 30 nM.
With `O=C(NCc1cccnc1)c1sc(N2CCN(Cc3ccc(F)cc3)C2=O)nc1C(F)(F)F` [Compound 21], in data set [1], the 50% inhibitory concentration (IC50) is 42 nM.
`O=C(NCc1cccnc1)c1sc(N2CCN(Cc3ccc(F)cc3)C2=O)nc1C(F)(F)F` [Compound 23]: in [1], the IC50 is 10 nM.
As to `Cc1nnc(-c2ccc(N3CCC(Oc4cc(F)ccc4Cl)CC3)nn2)o1` [Compound 49], the half-maximal inhibitory concentration (IC50) in data set [2] is 37 nM.
Regarding `COc1ccc(-c2nc3cnc(NCc4ccc(Cl)c(Cl)c4)nc3n(CCNC(C)=O)c2=O)cc1` [Compound 51], the concentration for half-maximal inhibition (IC50) in data set [3] was 250 nM; in data set [2], 280 nM.
Regarding `COc1ccc(-c2nc3ccc(NCc4ccc(Cl)c(C(F)(F)F)c4)cc3n(CCNC(C)=O)c2=O)cc1` [Compound 54], the “stability in HLM” value in [4] is reported as “greater than 50%”. Further, the “selectivity against Δ6 desaturase” value in data set [5] is recorded as “selective”. Besides, in data set [6], the “selectivity against Δ5 desaturase” value is on record as “selective”. Also, the “stability in RLM” value in data set [7] was “greater than 50%”.
Consider `O=C1O[C@@H](CO)CN1c1ccc(N2CCC(Oc3ccccc3C(F)(F)F)CC2)nc1` [Compound 67], for which the “inhibition of human SCD1” value in [2] (at 10 μM) was 99%.
For the molecule `O=c1cc(N2CCN(Cc3cc(Cl)cc(Cl)c3O)CC2)nc[nH]1` [RG1], the “cell proliferation, oleate / palmitate supplement” value in data set [8] and in [9] was “suppress cell proliferation in a fatty acid desaturation-dependent manner” throughout. The IC50 in data set [8] (Experiment 1 HCT15, 72 hr) worked out at 5.84 nM; in data set [8] (Experiment 2 HCT15, 72 hr), 13.4 nM; in data set [9] (Experiment 1 HT29, 72 hr), 95.7 nM; in data set [9] (Experiment 2 HT29, 72 hr), 33.5 nM.
`O=c1cc(N2CCN(Cc3cc(I)ccc3O)CC2)nc[nH]1` [RG2]: the 50% inhibitory concentration (IC50) stood at 58.1 nM in [8] (Experiment 1 HCT15, 72 hr); 122 nM in data set [8] (Experiment 2 HCT15, 72 hr); 683 nM in [9] (Experiment 1 HT29, 72 hr); 398 nM in data set [9] (Experiment 2 HT29, 72 hr).
Turning to `O=c1cc(N2CCN(Cc3cc(Cl)cc(Br)c3O)CC2)nc[nH]1` [RG3], the “cell proliferation, oleate / palmitate supplement” value in data set [8] and in data set [9] was “suppress cell proliferation in a fatty acid desaturation-dependent manner” each time. Also, the IC50 is 2.77 nM in [8] (Experiment 1 HCT15, 72 hr); 8.22 nM in data set [8] (Experiment 2 HCT15, 72 hr); 42.6 nM in [9] (Experiment 1 HT29, 72 hr); 14.5 nM in [9] (Experiment 2 HT29, 72 hr).
As to `O=c1cc(N2CCN(Cc3cc(F)cc(F)c3O)CC2)nc[nH]1` [RG4], the IC50 in data set [8] (Experiment 1 HCT15, 72 hr) amounted to 289 nM; in [8] (Experiment 2 HCT15, 72 hr), 244 nM; in data set [9] (Experiment 1 HT29, 72 hr), 547 nM; in [9] (Experiment 2 HT29, 72 hr), 346 nM.
The corresponding values for `O=c1cc(N2CCN(Cc3cccc(Cl)c3O)CC2)nc[nH]1` [RG5] are 152 nM, 383 nM, 277 nM and 328 nM.
For `O=c1cc(N2CCN(Cc3cc(Cl)ccc3O)CC2)nc[nH]1` [RG6], in that order: 86.9 nM, 169 nM, 330 nM and 280 nM.
The corresponding values for `O=c1cc(N2CCN(Cc3cc(Cl)ccc3[N+](=O)[O-])CC2)nc[nH]1` [RG7] are 177 nM, 495 nM, 89.7 nM and 272 nM.
As to `O=c1cc(N2CCN(Cc3cc(Br)cc(Br)c3O)CC2)nc[nH]1` [RG8], the “cell proliferation, oleate / palmitate supplement” value in [8] and in data set [9] was “suppress cell proliferation in a fatty acid desaturation-dependent manner” each time. For the same molecule, the IC50 in data set [8] (Experiment 1 HCT15, 72 hr) is 0.784 nM; in [8] (Experiment 2 HCT15, 72 hr), 4.14 nM; in data set [9] (Experiment 1 HT29, 72 hr), 18.7 nM; in data set [9] (Experiment 2 HT29, 72 hr), 8.13 nM.
As to `Cc1cccc(CN2CCN(c3cc(=O)[nH]cn3)CC2)c1O` [RG11], the IC50 in data set [8] (Experiment 1 HCT15, 72 hr) is 148 nM; in data set [8] (Experiment 2 HCT15, 72 hr) it was 416 nM; in [9] (Experiment 1 HT29, 72 hr) it was 243 nM; in [9] (Experiment 2 HT29, 72 hr) it was 266 nM.
The corresponding values for `Cc1cc(Cl)cc(CN2CCN(c3cc(=O)[nH]cn3)CC2)c1O` [RG12] are 1 nM, 4.33 nM, 378 nM and 83.5 nM.
For `Cc1c(Br)cccc1CN1CCN(c2cc(=O)[nH]cn2)CC1` [RG13], in that order: 288 nM, 274 nM, 129 nM and 191 nM.
For `O=c1cc(N2CCN(Cc3cc(OC(F)(F)F)ccc3O)CC2)nc[nH]1` [RG14], in that order: 24.6 nM, 53 nM, 689 nM and 323 nM.
